How the values were obtained:
[1] = test system: CCRF-CEM; test: NCI in vitro cancer screen, Leukemia; type: cell-based, human; conditions: for GI50 / CC50: Homo sapiens; for CC50: read-out: LC50 (the source's name)
[2] = test system: A549/ATCC; test: NCI in vitro cancer screen, Non-Small Cell Lung Cancer; type: cell-based, human; conditions: for GI50 / CC50: Homo sapiens; for CC50: read-out: LC50 (the source's name)
[3] = test system: EKVX; test: as above; type: cell-based, human; conditions: for GI50 / CC50: Homo sapiens; for CC50: read-out: LC50 (the source's name)
[4] = test system: NCI-H226; test: as above; type: cell-based, human; conditions: NCI-H226; for GI50 / LC50 (50% lethal concentration): Homo sapiens
[5] = test system: NCI-H322M; test: as above; type: cell-based, human; conditions: for GI50 / LC50 (50% lethal concentration): Homo sapiens
[6] = test system: NCI-H522; test: as above; type: cell-based, human; conditions: NCI-H522; for GI50 / CC50: Homo sapiens; for CC50: read-out: LC50 (the source's name)
[7] = test system: HCC-2998; test: NCI in vitro cancer screen, Colon Cancer; type: cell-based, human; conditions: HCC-2998; for GI50 / CC50: Homo sapiens; for CC50: read-out: LC50 (the source's name)
[8] = test system: HCT-15; test: NCI in vitro cancer screen, Colon Cancer; type: cell-based, human; conditions: HCT-15; for GI50 / CC50: Homo sapiens; for CC50: read-out: LC50 (the source's name)
[9] = test system: KM12; test: NCI in vitro cancer screen, Colon Cancer; type: cell-based, human; conditions: KM12; for GI50 / CC50: Homo sapiens; for CC50: read-out: LC50 (the source's name)
[10] = test system: SW-620; test: NCI in vitro cancer screen, Colon Cancer; type: cell-based, human; conditions: SW-620; for GI50 / CC50: Homo sapiens; for CC50: read-out: LC50 (the source's name)
[11] = test system: SF-268; test: NCI in vitro cancer screen, CNS Cancer; type: cell-based, human; conditions: SF-268; for GI50 / CC50: Homo sapiens; for CC50: read-out: LC50 (the source's name)
[12] = test system: SF-539; test: NCI in vitro cancer screen, CNS Cancer; type: cell-based; conditions: SF-539; for GI50 / CC50: Homo sapiens; for CC50: read-out: LC50 (the source's name)
[13] = test system: SNB-75; test: NCI in vitro cancer screen, CNS Cancer; type: cell-based, human; conditions: SNB-75; for GI50 / CC50: Homo sapiens; for CC50: read-out: LC50 (the source's name)
[14] = test system: U251; test: NCI in vitro cancer screen, CNS Cancer; type: cell-based, human; conditions: U251; for GI50 / CC50: Homo sapiens, U-251; for CC50: read-out: LC50 (the source's name)
[15] = test system: MALME-3M; test: NCI in vitro cancer screen, Melanoma; type: cell-based, human; conditions: for GI50 / CC50: Homo sapiens, Malme-3M; for CC50: read-out: LC50 (the source's name); for TGI: MALME-3M
[16] = test system: MDA-MB-435; test: NCI in vitro cancer screen, Melanoma; type: cell-based, human; conditions: MDA-MB-435; for GI50 / CC50: Homo sapiens; for CC50: read-out: LC50 (the source's name)
[17] = test system: SK-MEL-2; test: NCI in vitro cancer screen, Melanoma; type: cell-based, human; conditions: SK-MEL-2; for GI50 / LC50: Homo sapiens
[18] = test system: IGROV1; test: NCI in vitro cancer screen, Ovarian Cancer; type: cell-based, human; conditions: IGROV1; for GI50 / CC50: Homo sapiens, IGROV-1; for CC50: read-out: LC50 (the source's name)
[19] = test system: OVCAR-3; test: NCI in vitro cancer screen, Ovarian Cancer; type: cell-based, human; conditions: OVCAR-3; for GI50 / CC50: Homo sapiens; for CC50: read-out: LC50 (the source's name)
[20] = test system: A498; test: NCI in vitro cancer screen, Renal Cancer; type: cell-based, human; conditions: A498; for GI50 / CC50: Homo sapiens; for CC50: read-out: LC50 (the source's name)
[21] = test system: ACHN; test: NCI in vitro cancer screen, Renal Cancer; type: cell-based, human; conditions: for GI50 / CC50: Homo sapiens; for CC50: read-out: LC50 (the source's name)
[22] = test system: CAKI-1; test: NCI in vitro cancer screen, Renal Cancer; type: cell-based, human; conditions: CAKI-1; for GI50 / CC50: Homo sapiens; for CC50: read-out: LC50 (the source's name)
[23] = test system: SN12C; test: NCI in vitro cancer screen, Renal Cancer; type: cell-based, human; conditions: for GI50 / CC50: Homo sapiens; for CC50: read-out: LC50 (the source's name)
[24] = test system: TK-10; test: NCI in vitro cancer screen, Renal Cancer; type: cell-based, human; conditions: TK-10; for GI50 / LC50: Homo sapiens
[25] = test system: PC-3; test: NCI in vitro cancer screen, Prostate Cancer; type: cell-based, human; conditions: PC-3; for GI50 / CC50: Homo sapiens; for CC50: read-out: LC50 (the source's name)
[26] = test system: MCF7; test: NCI in vitro cancer screen, Breast Cancer; type: cell-based, human; conditions: MCF7; for GI50 / CC50: Homo sapiens; for CC50: read-out: LC50 (the source's name)
[27] = test system: MDA-MB-231 (MDA-MB-231/ATCC); test: NCI in vitro cancer screen, Breast Cancer; type: cell-based, human; conditions: MDA-MB-231; for GI50 / CC50: Homo sapiens; for CC50: read-out: LC50 (the source's name)
[28] = test system: HS 578T; test: NCI in vitro cancer screen, Breast Cancer; type: cell-based, human; conditions: for GI50 / CC50: Homo sapiens; for CC50: read-out: LC50 (the source's name)

## COc1cc(/C=C/c2cc(O)cc(OC)c2CC=C(C)C)ccc1O [USYDS1, (E)-2-(3-methyl-2-buten-1-yl)-4′,5-dihydroxy-3,3′-dimethoxystilbene]
[1]
  TGI: 24.6 µM
  GI50: 0.35 µM
  CC50: > 100 µM
[2]
  TGI: 11.3 µM
  GI50: 0.5 µM
  CC50: 40.3 µM
[3]
  TGI: 24.3 µM
  GI50: 10.8 µM
  CC50: 54.4 µM
[4]
  GI50: 3.13 µM
  LC50 (50% lethal concentration): 45.6 µM
  TGI: 13.3 µM
[5]
  TGI: 25.7 µM
  GI50: 11.8 µM
  LC50 (50% lethal concentration): 55.9 µM
[6]
  GI50: 0.02 µM
  CC50: 44.8 µM
[7]
  TGI: 11.5 µM
  GI50: 1.07 µM
  CC50: 35.8 µM
[8]
  TGI: 16.1 µM
  GI50: 0.05 µM
  CC50: > 100 µM
[9]
  GI50: 0.32 µM
  CC50: 46.7 µM
  TGI: 13.9 µM
[10]
  GI50: 0.04 µM
  CC50: 44.3 µM
  TGI: 15.1 µM
[11]
  GI50: 0.25 µM
  CC50: 50.2 µM
  TGI: 14.1 µM
[12]
  GI50: 0.04 µM
  CC50: 48.6 µM
  TGI: 14.4 µM
[13]
  GI50: 0.03 µM
  CC50: 72 µM
  TGI: 20.2 µM
[14]
  GI50: 0.37 µM
  CC50: 36 µM
  TGI: 10.9 µM
[15]
  GI50: 3.47 µM
  CC50: 78.3 µM
  TGI: 25.8 µM
[16]
  GI50: 0.03 µM
  CC50: 43 µM
  TGI: 13.8 µM
[17]
  GI50: 0.32 µM
  LC50: 38 µM
  TGI: 10.6 µM
[18]
  GI50: 2.65 µM
  CC50: > 100 µM
  TGI: 27.9 µM
[19]
  GI50: 0.26 µM
  CC50: 37.3 µM
[20]
  TGI: 8.45 µM
  GI50: 1.84 µM
  CC50: 32.2 µM
[21]
  TGI: 14.0 µM
  GI50: 0.07 µM
  CC50: 44.6 µM
[22]
  TGI: 39.3 µM
  GI50: 4.77 µM
  CC50: > 100 µM
[23]
  TGI: 16.9 µM
  GI50: 0.99 µM
  CC50: 54.2 µM
[24]
  GI50: 4.1 µM
  LC50: 40.5 µM
  TGI: 15.7 µM
[25]
  GI50: 0.42 µM
  CC50: 47.9 µM
  TGI: 16.1 µM
[26]
  GI50: 0.23 µM
  CC50: 52.9 µM
  TGI: 13.0 µM
[27]
  GI50: 0.15 µM
  CC50: 61.2 µM
  TGI: 2.43 µM
[28]
  GI50: 0.02 µM
  CC50: > 100 µM

## CC(C)=CCc1c(O)cc(/C=C/c2ccc(O)c(O)c2)c(CC=C(C)C)c1O [USYDS7, (E)-2,4-di(3-methyl-2-buten-1-yl)-3,3′,4′,5-tetrahydroxystilbene]
[1]
  TGI: 8.48 µM
  GI50: 2.73 µM
  CC50: 71.2 µM
[2]
  TGI: 4.06 µM
  GI50: 1.88 µM
  CC50: 8.78 µM
[3]
  TGI: 14.7 µM
  GI50: 4.25 µM
  CC50: 44.9 µM
[4]
  GI50: 2.28 µM
  LC50 (50% lethal concentration): 28.1 µM
  TGI: 6.24 µM
[5]
  TGI: 18.1 µM
  GI50: 5.29 µM
  LC50 (50% lethal concentration): 44.7 µM
[6]
  GI50: 1.61 µM
  CC50: 7.92 µM
  TGI: 3.57 µM
[7]
  TGI: 4.26 µM
  GI50: 1.95 µM
  CC50: 9.34 µM
[8]
  TGI: 3.78 µM
  GI50: 1.29 µM
  CC50: 22 µM
[9]
  GI50: 1.93 µM
  CC50: 7.79 µM
  TGI: 3.88 µM
[10]
  GI50: 1.58 µM
  CC50: 6.42 µM
  TGI: 3.19 µM
[11]
  GI50: 2.26 µM
  CC50: 22.7 µM
  TGI: 5.47 µM
[12]
  GI50: 2.21 µM
  CC50: 35.2 µM
  TGI: 6.14 µM
[13]
  GI50: 2.98 µM
  CC50: 49.1 µM
  TGI: 12.8 µM
[14]
  GI50: 1.49 µM
  CC50: 5.74 µM
  TGI: 2.93 µM
[15]
  GI50: 1.97 µM
  CC50: 10.4 µM
  TGI: 4.46 µM
[16]
  GI50: 2.29 µM
  CC50: 31.7 µM
  TGI: 6.47 µM
[17]
  GI50: 3.2 µM
  LC50: 42.9 µM
  TGI: 7.82 µM
[18]
  GI50: 3.12 µM
  CC50: 36.7 µM
  TGI: 8.39 µM
[19]
  GI50: 1.82 µM
  CC50: 6.19 µM
  TGI: 3.36 µM
[20]
  TGI: 23.8 µM
  GI50: 11.1 µM
  CC50: 50.8 µM
[21]
  TGI: 9.12 µM
  GI50: 2.58 µM
  CC50: 37.6 µM
[22]
  TGI: 16.2 µM
  GI50: 4.24 µM
  CC50: 49 µM
[23]
  TGI: 3.16 µM
  GI50: 1.65 µM
  CC50: 6.03 µM
[24]
  GI50: 3.62 µM
  LC50: 34.3 µM
  TGI: 11.2 µM
[25]
  GI50: 2.02 µM
  CC50: 11.3 µM
  TGI: 4.57 µM
[26]
  GI50: 2.1 µM
  CC50: 57.9 µM
  TGI: 12.0 µM
[27]
  GI50: 1.49 µM
  CC50: 10.7 µM
  TGI: 3.89 µM
[28]
  TGI: 8.09 µM
  GI50: 1.84 µM
  CC50: 50.9 µM
